# Target: TrkA (Homo sapiens (Human), UniProt P04629)
# Assay: TrkA kinase HTRF enzyme inhibition assay
# Assay type: biochemical
# Details: TrkA pre-incubated with 200 μM ATP
# Summary of the method: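 TrkA (2-10 nM) pre-activated 20 min with 200 μM ATP in HEPES pH 7.4/Mg/Mn buffer, compound added for 10 min, then biotinylated LCK-analog peptide (125 nM) for 1 h at ambient temperature. HTRF phosphotyrosine detection (665/620 ratio); duplicate half-log dilutions, IC50 from initial-rate inhibition via equation 1.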
# TrkA, sequence (P04629 33-796): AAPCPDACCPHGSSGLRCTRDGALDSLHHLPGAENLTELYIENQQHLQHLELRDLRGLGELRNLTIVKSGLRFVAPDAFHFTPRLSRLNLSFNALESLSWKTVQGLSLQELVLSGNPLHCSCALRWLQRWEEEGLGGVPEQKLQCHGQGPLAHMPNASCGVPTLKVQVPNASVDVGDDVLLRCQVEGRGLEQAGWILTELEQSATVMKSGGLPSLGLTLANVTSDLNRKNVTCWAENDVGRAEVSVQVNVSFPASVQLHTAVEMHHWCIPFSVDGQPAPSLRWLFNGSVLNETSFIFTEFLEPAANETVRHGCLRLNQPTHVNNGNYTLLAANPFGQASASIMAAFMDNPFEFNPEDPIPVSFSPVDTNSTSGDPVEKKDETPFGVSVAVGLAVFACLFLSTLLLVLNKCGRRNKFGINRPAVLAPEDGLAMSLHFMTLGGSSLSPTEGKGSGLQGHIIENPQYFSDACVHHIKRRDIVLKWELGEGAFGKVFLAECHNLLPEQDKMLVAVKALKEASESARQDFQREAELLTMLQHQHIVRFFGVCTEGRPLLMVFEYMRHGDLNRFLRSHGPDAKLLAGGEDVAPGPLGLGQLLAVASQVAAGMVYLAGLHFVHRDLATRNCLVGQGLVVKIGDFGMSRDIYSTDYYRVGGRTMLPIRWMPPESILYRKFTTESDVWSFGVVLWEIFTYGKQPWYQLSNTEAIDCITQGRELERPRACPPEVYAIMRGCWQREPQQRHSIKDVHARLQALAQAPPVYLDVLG
row,SMILES,IC50
1,"CCOc1nc(N2CCNCC2)ccc1NC(=O)c1coc2c1C(=O)NC(C)(C)C2 [Example 127, N-[2-ethoxy-6-(piperazin-1-yl)pyridin-3-yl]-6,6-dimethyl-4-oxo-4,5,6,7-tetrahydrofuro[3,2-c]pyridine-3-carboxamide]",13.2 nM
2,"CC(C)Oc1nc(N2C[C@H]3CCN[C@H]3C2)ccc1NC(=O)c1coc2c1C(=O)NC(C)(C)C2 [Example 129, N-{6-[(3 aR,6aR)-hexahydropyrrolo[3,4-b]pyrrol-5(1H)-yl]-2-isopropoxypyridin-3-yl}-6,6-dimethyl-4-oxo-4,5,6,7-tetrahydrofuro[3,2-c]pyridine-3-carboxamide]",10.8 nM
3,"CC(C)Oc1nc(N2C[C@H]3CCN(C(=O)N4CCN(C)CC4)[C@H]3C2)ccc1NC(=O)c1coc2c1C(=O)NC(C)(C)C2 [Example 132, N-{2-isopropoxy-6-[(3aR,6aR)-1-[(4-methylpiperazin-1-yl)carbonyl]hexahydropyrrolo[3,4-b]pyrrol-5(1H)-yl]pyridin-3-yl}-6,6-dimethyl-4-oxo-4,5,6,7-tetrahydrofuro[3,2-c]pyridine-3-carboxamide]",6.9 nM
4,"CC(=O)N1CCN(c2ccc(NC(=O)c3coc4c3C(=O)NC(C)(C)C4)c(OC(C)C)n2)[C@H](CO)C1 [Example 134, N-{6-[(2S)-4-acetyl-2-(hydroxymethyl)piperazin-1-yl]-2-isopropoxypyridin-3-yl}-6,6-dimethyl-4-oxo-4,5,6,7-tetrahydrofuro[3,2-c]pyridine-3-carboxamide]",3.9 nM
5,"CC(C)Oc1nc(N2CCN(C(=O)N3CCOCC3)C[C@H]2CO)ccc1NC(=O)c1coc2c1C(=O)NC(C)(C)C2 [Example 135, N-{6-[(2S)-2-(hydroxymethyl)-4-(morpholin-4-ylcarbonyl)piperazin-1-yl]-2-isopropoxypyridin-3-yl}-6,6-dimethyl-4-oxo-4,5,6,7-tetrahydrofuro[3,2-c]pyridine-3-carboxamide]",2.3 nM
6,"CC(C)Oc1nc(N2CC[C@H](N(C)C)C2)ccc1NC(=O)c1coc2c1C(=O)NC(C)(C)C2 [Example 136, N-{6-[(3S)-3-(dimethylamino)pyrrolidin-1-yl]-2-isopropoxypyridin-3-yl}-6,6-dimethyl-4-oxo-4,5,6,7-tetrahydrofuro[3,2-c]pyridine-3-carboxamide]",10.2 nM
7,"CC(C)Oc1nc(N2CCC[C@H](CO)C2)ccc1NC(=O)c1coc2c1C(=O)NC(C)(C)C2 [Example 137, N-{6-[(3S)-3-(hydroxymethyl)piperidin-1-yl]-2-isopropoxypyridin-3-yl}-6,6-dimethyl-4-oxo-4,5,6,7-tetrahydrofuro[3,2-c]pyridine-3-carboxamide]",13.3 nM
8,"CC(=O)N1CCN(c2ccc(NC(=O)c3coc4c3C(=O)NC(C)(C)C4)c(OC(C)C)n2)[C@@H](CO)C1 [Example 139, N-{6-[(2R)-4-acetyl-2-(hydroxymethyl)piperazin-1-yl]-2-isopropoxypyridin-3-yl}-6,6-dimethyl-4-oxo-4,5,6,7-tetrahydrofuro[3,2-c]pyridine-3-carboxamide]",2.4 nM
9,"CC(C)Oc1nc(N(CCO)CCO)ccc1NC(=O)c1coc2c1C(=O)NC(C)(C)C2 [Example 140, N-{6-[bis(2-hydroxyethyl)amino]-2-isopropoxypyridin-3-yl}-6,6-dimethyl-4-oxo-4,5,6,7-tetrahydrofuro[3,2-c]pyridine-3-carboxamide]",10.5 nM
10,"COCCOc1ccc(NC(=O)c2coc3c2C(=O)NC(C)(C)C3)c(OCCOC)n1 [Example 141, N-[2,6-bis(2-methoxyethoxy)pyridin-3-yl]-6,6-dimethyl-4-oxo-4,5,6,7-tetrahydrofuro[3,2-c]pyridine-3-carboxamide]",60.1 nM
11,"CCOc1nc(CO)ccc1NC(=O)c1coc2c1C(=O)NC(C)(C)C2 [Example 144, N-[2-ethoxy-6-(hydroxymethyl)pyridin-3-yl]-6,6-dimethyl-4-oxo-4,5,6,7-tetrahydrofuro[3,2-c]pyridine-3-carboxamide]",49.2 nM
12,"CCOc1nc(C(=O)O)ccc1NC(=O)c1coc2c1C(=O)N(CCOC)C(C)(C)C2 [Example 145, 6-ethoxy-5-({[5-(2-methoxyethyl)-6,6-dimethyl-4-oxo-4,5,6,7-tetrahydrofuro[3,2-c]pyridin-3-yl]carbonyl}amino)pyridine-2-carboxylic acid]",7.9 nM
13,"Cn1ncc2cc(NC(=O)c3coc4c3C(=O)CC(C)(C)C4)ccc21 [Example 146, 6,6-dimethyl-N-(1-methyl-1H-indazol-5-yl)-4-oxo-4,5,6,7-tetrahydro-1-benzofuran-3-carboxamide]",34.1 nM
14,"CC(=O)N1CCN(c2ccc(NC(=O)c3coc4c3C(=O)CC(C)(C)C4)cc2)CC1 [Example 148, N-[4-(4-acetylpiperazin-1-yl)phenyl]-6,6-dimethyl-4-oxo-4,5,6,7-tetrahydro-1-benzofuran-3-carboxamide]",32.4 nM
15,"CC1(C)CC(=O)c2c(C(=O)Nc3ccc(N4CCNCC4)nc3)coc2C1 [Example 149, 6,6-dimethyl-4-oxo-N-[6-(piperazin-1-yl)pyridin-3-yl]-4,5,6,7-tetrahydro-1-benzofuran-3-carboxamide]",135 nM
16,"CC1(C)CC(=O)c2c(C(=O)Nc3ccc(N4CCN(S(C)(=O)=O)CC4)cc3)coc2C1 [Example 152, 6,6-dimethyl-N-{4-[4-(methylsulfonyl)piperazin-1-yl]phenyl}-4-oxo-4,5,6,7-tetrahydro-1-benzofuran-3-carboxamide]",35.8 nM
17,"CC1(C)CC(=O)c2c(C(=O)Nc3ccc4[nH]c(CO)nc4c3)coc2C1 [Example 154, N-[2-(hydroxymethyl)-1H-benzimidazol-5-yl]-6,6-dimethyl-4-oxo-4,5,6,7-tetrahydro-1-benzofuran-3-carboxamide]",74 nM
18,"CC1(C)CC(=O)c2c(C(=O)Nc3ccc(N4CCN(S(C)(=O)=O)CC4)cn3)coc2C1 [Example 155, 6,6-dimethyl-N-{5-[4-(methylsulfonyl)piperazin-1-yl]pyridin-2-yl}-4-oxo-4,5,6,7-tetrahydro-1-benzofuran-3-carboxamide]",54.8 nM
19,"CC(=O)N1CCN(c2ccc(NC(=O)c3coc4c3C(=O)CC(C)(C)C4)nc2)CC1 [Example 156, N-[5-(4-acetylpiperazin-1-yl)pyridin-2-yl]-6,6-dimethyl-4-oxo-4,5,6,7-tetrahydro-1-benzofuran-3-carboxamide]",46.7 nM
20,"COc1cc(N2CCN(C(C)=O)CC2)ccc1NC(=O)c1coc2c1C(=O)CC(C)(C)C2 [Example 158, N-[4-(4-acetylpiperazin-1-yl)-2-methoxyphenyl]-6,6-dimethyl-4-oxo-4,5,6,7-tetrahydro-1-benzofuran-3-carboxamide]",4.2 nM

# Continued by falling IC50, values first:
row,IC50,SMILES
1,98.1 nM,"CC(C)Oc1nc(N2C[C@@H]3CCN(CCO)[C@@H]3C2)ccc1NC(=O)c1coc2c1C(=O)NC(C)(C)C2 [Example 131, N-{6-[(3aS,6aS)-1-(2-hydroxyethyl)hexahydropyrrolo[3,4-b]pyrrol-5(1H)-yl]-2-isopropoxypyridin-3-yl}-6,6-dimethyl-4-oxo-4,5,6,7-tetrahydrofuro[3,2-c]pyridine-3-carboxamide]"
2,63.4 nM,"CC1(C)CC(=O)c2c(C(=O)Nc3ccc(N4CCNCC4)cn3)coc2C1 [Example 151, 6,6-dimethyl-4-oxo-N-[5-(piperazin-1-yl)pyridin-2-yl]-4,5,6,7-tetrahydro-1-benzofuran-3-carboxamide]"
3,45.6 nM,"CC1(C)CC(=O)c2c(C(=O)Nc3ccc4nn(CCO)cc4c3)coc2C1 [Example 153, N-[2-(2-hydroxyethyl)-2H-indazol-5-yl]-6,6-dimethyl-4-oxo-4,5,6,7-tetrahydro-1-benzofuran-3-carboxamide]"
4,43.2 nM,"Cn1cc2cc(NC(=O)c3coc4c3C(=O)CC3(CCC3)C4)ccc2n1 [Example 150, N-(2-methyl-2H-indazol-5-yl)-4-oxo-4,7-dihydro-5H-spiro[1-benzofuran-6,1′-cyclobutane]-3-carboxamide]"
5,38.3 nM,"COc1nc(N2CC[C@@H]3CN(C)C[C@@H]32)ccc1NC(=O)c1coc2c1C(=O)NC(C)(C)C2 [Example 130, N-{2-methoxy-6-[(3aR,6aR)-5-methylhexahydropyrrolo[3,4-b]pyrrol-1 (2H)-yl]pyridin-3-yl}-6,6-dimethyl-4-oxo-4,5,6,7-tetrahydrofuro[3,2-c]pyridine-3-carboxamide]"
6,24.6 nM,"CCOc1nc(CCO)ccc1NC(=O)c1coc2c1C(=O)NC(C)(C)C2 [Example 143, N-[2-ethoxy-6-(2-hydroxyethyl)pyridin-3-yl]-6,6-dimethyl-4-oxo-4,5,6,7-tetrahydrofuro[3,2-c]pyridine-3-carboxamide]"
7,6.4 nM,"COc1cc(N2CCNCC2)ccc1NC(=O)c1coc2c1C(=O)CC(C)(C)C2 [Example 157, N-[2-methoxy-4-(piperazin-1-yl)phenyl]-6,6-dimethyl-4-oxo-4,5,6,7-tetrahydro-1-benzofuran-3-carboxamide]"
8,6.3 nM,"CC(=O)N1CCN(c2ccc(NC(=O)c3coc4c3C(=O)NC(C)(C)C4)c(OC(C)C)n2)C[C@@H]1CO [Example 138, N-{6-[(3R)-4-acetyl-3-(hydroxymethyl)piperazin-1-yl]-2-isopropoxypyridin-3-yl}-6,6-dimethyl-4-oxo-4,5,6,7-tetrahydrofuro[3,2-c]pyridine-3-carboxamide]"
9,3.3 nM,"CC(=O)N1CCN(c2ccc(NC(=O)c3coc4c3C(=O)NC(C)(C)C4)c(OC(C)C)n2)C[C@H]1CO [Example 133, N-{6-[(3S)-4-acetyl-3-(hydroxymethyl)piperazin-1-yl]-2-isopropoxypyridin-3-yl}-6,6-dimethyl-4-oxo-4,5,6,7-tetrahydrofuro[3,2-c]pyridine-3-carboxamide]"
10,1.8 nM,"COC[C@@H]1CN(c2ccc(NC(=O)c3coc4c3C(=O)NC(C)(C)C4)c(OCC(C)(C)O)n2)CCN1C(C)=O [Example 142, N-{6-[(3S)-4-acetyl-3-(methoxymethyl)piperazin-1-yl]-2-(2-hydroxy-2-methylpropoxy)pyridin-3-yl}-6,6-dimethyl-4-oxo-4,5,6,7-tetrahydrofuro[3,2-c]pyridine-3-carboxamide]"
